Test systems include Malme-3M; NCI-H226; LOX IMVI; OVCAR-3; UO-31; UACC-62; SK-MEL-5; NCI-H522; RPMI-8226; MDA-MB-435; RXF 393; SR; HT-29; HOP-62; SW-620; OVCAR-4; HOP-92; BT-549; EKVX.
Common to all, as to experiment: growth of human tumour cells (NCI), 48 h

The structures appear in SMILES notation.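 Five compound concentrations were applied to cells in 96-well plates for 48 hours; endpoints were derived by simple linear interpolation of the resulting dose-response curve. GI50: concentration for 50% inhibition of growth.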 The source made the active and inactive calls. Rule as the data show it: active = GI50 up to about 1.1 µM and inactive = higher. Bounds are passed on as bounds.

Consider `CC(Oc1ccccc1)C(=O)NNC(=O)OC(C)(C)C` (stereo not given), for which the GI50 in the test with Malme-3M, in the test on NCI-H226, in the test on LOX IMVI, in the test with OVCAR-3, in the test on UO-31 and with UACC-62 was > 100 µM (inactive) in each case. The GI50 in the test on SK-MEL-5, with NCI-H522, with RPMI-8226, in the test with MDA-MB-435, in the test on RXF 393 and in the test on SR was > 100 µM (inactive) throughout. The GI50 in the test with HT-29, with HOP-62, with SW-620, in the test on OVCAR-4, in the test on HOP-92 and in the test on BT-549 was > 100 µM (inactive) each time. The GI50 with EKVX is > 100 µM (inactive).
Consider `O=C1CC2C(=O)C1C(C(=O)O)C2C(=O)O` (stereo not given), for which the GI50 in the test on Malme-3M, in the test on NCI-H226, in the test on LOX IMVI, in the test with OVCAR-3, in the test with UO-31 and in the test with UACC-62 was > 100 µM (inactive) each time. Also, the GI50 in the test on SK-MEL-5, in the test on NCI-H522, in the test with RPMI-8226, with MDA-MB-435, in the test on RXF 393 and in the test on SR was > 100 µM (inactive) each time. Besides, the GI50 in the test on HT-29, with HOP-62, in the test with SW-620, in the test with OVCAR-4, in the test on HOP-92 and in the test on BT-549 was > 100 µM (inactive) throughout. The GI50 in the test with EKVX is > 100 µM (inactive).
With `CN(C)CCNc1ccc2c(=O)n(CCN(C)C)c(=O)n3c4ccccc4c(=O)c1c23`, the GI50 was 0.18 µM (active) in the test on Malme-3M; 0.0603 µM (active) in the test on NCI-H226; 0.0624 µM (active) in the test on LOX IMVI; 0.218 µM (active) in the test on OVCAR-3; 0.166 µM (active) in the test on UO-31; 0.0614 µM (active) in the test with UACC-62. In addition, the GI50 in the test on SK-MEL-5 was 0.0427 µM (active); with NCI-H522, 0.0689 µM (active); in the test with RPMI-8226, 0.0182 µM (active); with MDA-MB-435, 0.145 µM (active); in the test with RXF 393, 0.109 µM (active); in the test with SR, < 0.01 µM (active). Besides, the GI50 is 0.0502 µM (active) in the test on HT-29; 0.0185 µM (active) in the test on HOP-62; < 0.0208 µM (active) with SW-620; 0.27 µM (active) in the test on OVCAR-4; 0.0516 µM (active) in the test with HOP-92; 0.238 µM (active) in the test with BT-549. Moreover, the GI50 in the test on EKVX was 0.174 µM (active).
In the case of `Cc1c(C#N)c2nnn(-c3ccc(Cl)cc3)c(=O)n2c1-c1ccccc1`, the GI50 is 0.0468 µM (active) in the test with Malme-3M; 0.114 µM (active) with NCI-H226; 0.221 µM (active) in the test with LOX IMVI; 0.047 µM (active) in the test on OVCAR-3; 3.29 µM (inactive) in the test on UO-31; 0.149 µM (active) in the test on UACC-62. Besides, the GI50 is 0.0605 µM (active) in the test on SK-MEL-5; 0.0586 µM (active) in the test on NCI-H522; 0.16 µM (active) with RPMI-8226; < 0.0188 µM (active) in the test with MDA-MB-435; 0.0764 µM (active) in the test with RXF 393; < 0.0212 µM (active) with SR. The GI50 with HT-29 is 0.0553 µM (active); with HOP-62 it was 0.108 µM (active); with SW-620 it was 0.113 µM (active); with OVCAR-4, 0.351 µM (active); with HOP-92, 0.474 µM (active); in the test with BT-549 it was 0.37 µM (active). In the test with EKVX, the GI50 is 0.237 µM (active).
Consider `c1ccc2c3c([nH]c2c1)C1c2[nH]c4ccccc4c2CCN1CC3`, for which the GI50 in the test with Malme-3M was 15.1 µM (inactive); with NCI-H226, 14.7 µM (inactive); with LOX IMVI, 11.6 µM (inactive); with OVCAR-3 it was 12.4 µM (inactive); in the test on UO-31, 5.62 µM (inactive); with UACC-62, 16.7 µM (inactive). For the same compound, the GI50 with SK-MEL-5 was 13.6 µM (inactive); in the test on NCI-H522, 11.6 µM (inactive); in the test on RPMI-8226 it was 11.9 µM (inactive); with MDA-MB-435 it was 15.2 µM (inactive); with RXF 393, 13.6 µM (inactive); with SR, 9.75 µM (inactive). The GI50 in the test with HT-29 was 10.9 µM (inactive); in the test on HOP-62 it was 13.6 µM (inactive); in the test with SW-620 it was 16.2 µM (inactive); in the test with OVCAR-4 it was 4.49 µM (inactive); with HOP-92 it was 2.03 µM (inactive); with BT-549, 16.1 µM (inactive). Besides, the GI50 in the test with EKVX is 6.12 µM (inactive).
As for `OC/C=C/[C@H](OCc1ccccc1)[C@H](/C=C/CO)OCc1ccccc1`, the GI50 is > 100 µM (inactive) in the test on Malme-3M; > 100 µM (inactive) with NCI-H226; 20.4 µM (inactive) with LOX IMVI; 39.7 µM (inactive) in the test with OVCAR-3; 64.1 µM (inactive) in the test on UO-31; 80 µM (inactive) in the test on UACC-62. In addition, the GI50 in the test on SK-MEL-5 was 27.9 µM (inactive); in the test on NCI-H522, 37.3 µM (inactive); in the test with RPMI-8226 it was 23.1 µM (inactive); in the test with MDA-MB-435, 40.1 µM (inactive); in the test with RXF 393, 9.06 µM (inactive); in the test with SR, 18.8 µM (inactive). In addition, the GI50 was 24.3 µM (inactive) with HT-29; 49.7 µM (inactive) with HOP-62; 39.9 µM (inactive) with SW-620; 29.8 µM (inactive) in the test with OVCAR-4; 45.4 µM (inactive) with HOP-92; 59.2 µM (inactive) with BT-549. Moreover, the GI50 in the test on EKVX is 47.6 µM (inactive).
As for `CC(C)[Si]1(C(C)C)OCC2OC(N3C(=O)NC(=O)C[C@@H]3C(O)c3ccccc3)CC2O[Si](C(C)C)(C(C)C)O1` (stereo not given in full), the GI50 in the test on Malme-3M was 5.41 µM (inactive); with NCI-H226, 2.15 µM (inactive); with LOX IMVI it was 5.24 µM (inactive); in the test on OVCAR-3, 4.83 µM (inactive); in the test with UO-31, 10.8 µM (inactive); with UACC-62, 8.91 µM (inactive). Also, the GI50 in the test with SK-MEL-5 is 11.3 µM (inactive); with NCI-H522 it was 3.18 µM (inactive); with RPMI-8226, 4.31 µM (inactive); in the test on MDA-MB-435, 5.5 µM (inactive); with RXF 393, 5.27 µM (inactive); in the test on SR, 1.68 µM (inactive). Further, the GI50 in the test on HT-29 is 2.48 µM (inactive); in the test with HOP-62, 11.9 µM (inactive); in the test on SW-620, 3.4 µM (inactive); with OVCAR-4, 4.51 µM (inactive); with HOP-92, 7.26 µM (inactive); with BT-549, 18.1 µM (inactive). In the test on EKVX, the GI50 is 8.2 µM (inactive).
Regarding `CCN(C(=O)N[C@@H](C)C(=O)N[C@@H](Cc1ccccc1)C(=O)OC)c1ccccc1`, the GI50 with Malme-3M is 34.4 µM (inactive); in the test on NCI-H226, > 100 µM (inactive); in the test on LOX IMVI, 31.2 µM (inactive); in the test on OVCAR-3 it was 54.2 µM (inactive); in the test with UO-31, 31.7 µM (inactive); in the test on UACC-62, 31.6 µM (inactive). In addition, the GI50 in the test on SK-MEL-5 is 95.9 µM (inactive); with NCI-H522, 71.6 µM (inactive); with RPMI-8226 it was 38.5 µM (inactive); in the test with MDA-MB-435, > 100 µM (inactive); with RXF 393, > 100 µM (inactive); in the test on SR, 26 µM (inactive). The GI50 is > 100 µM (inactive) in the test on HT-29; > 100 µM (inactive) with HOP-62; > 100 µM (inactive) in the test with SW-620; 68.4 µM (inactive) with OVCAR-4; 19.4 µM (inactive) in the test on HOP-92; > 100 µM (inactive) in the test with BT-549. The GI50 with EKVX was > 100 µM (inactive).
Turning to `COc1ccc(C2C(C=O)C(N3CCN(C)CC3)=Nc3nc4ccccc4n32)cc1` (stereo not given), the GI50 is 10.8 µM (inactive) with Malme-3M; 16.7 µM (inactive) with NCI-H226; 17.3 µM (inactive) in the test with LOX IMVI; 14.3 µM (inactive) with OVCAR-3; 14.4 µM (inactive) in the test with UO-31; 14.1 µM (inactive) in the test on UACC-62. The GI50 with SK-MEL-5 is 15.9 µM (inactive); with NCI-H522, 13 µM (inactive); in the test with RPMI-8226 it was 2.35 µM (inactive); in the test on MDA-MB-435, 15.5 µM (inactive); with RXF 393, 13.6 µM (inactive); in the test on SR, 0.0382 µM (active). The GI50 is 15.8 µM (inactive) with HT-29; 12.2 µM (inactive) in the test with HOP-62; 17.3 µM (inactive) in the test with SW-620; 8.18 µM (inactive) with OVCAR-4; 4.83 µM (inactive) in the test on HOP-92; 14 µM (inactive) in the test with BT-549. Further, in the test with EKVX, the GI50 was 27.7 µM (inactive).
In the case of `C[C@@H]1CCC([C@@H](C)[C@H]2CC[C@H]3[C@@H]4CC[C@H]5C[C@@H](O)CC[C@]5(C)[C@H]4CC[C@]23C)=NC1`, the GI50 in the test with Malme-3M was 18.1 µM (inactive); in the test with NCI-H226 it was > 29.8 µM (inactive); in the test with LOX IMVI, 3.15 µM (inactive); in the test with OVCAR-3 it was 20.4 µM (inactive); in the test on UO-31, 10.4 µM (inactive); in the test on UACC-62, 15.9 µM (inactive). Moreover, the GI50 was 7.64 µM (inactive) in the test on SK-MEL-5; 3.96 µM (inactive) with NCI-H522; 2.77 µM (inactive) in the test with RPMI-8226; 20.7 µM (inactive) in the test on MDA-MB-435; 12.2 µM (inactive) with RXF 393; 12 µM (inactive) in the test on SR. In addition, the GI50 is 2.45 µM (inactive) in the test with HT-29; 13.4 µM (inactive) with HOP-62; 40.8 µM (inactive) in the test with SW-620; 7.46 µM (inactive) in the test with OVCAR-4; > 41.9 µM (inactive) in the test with HOP-92; 25.6 µM (inactive) in the test on BT-549. Further, in the test with EKVX, the GI50 is 12.4 µM (inactive).

The record behind these values is ChEMBL document CHEMBL1201862, “PubChem BioAssay data set” (2004).
